Patent publication US7582629B2, “Derivatives of isothiazol-3(2H)-one 1,1-dioxides as liver X receptor modulators” (AstraZeneca AB, priority 2005, dated 2009)

Target: T1, LXRα (Homo sapiens, UniProt Q13133)
T1 construct: human LXRalpha (amino acid 205-447); made in house; host or cells: E. coli
T1 sequence (Q13133 205-447): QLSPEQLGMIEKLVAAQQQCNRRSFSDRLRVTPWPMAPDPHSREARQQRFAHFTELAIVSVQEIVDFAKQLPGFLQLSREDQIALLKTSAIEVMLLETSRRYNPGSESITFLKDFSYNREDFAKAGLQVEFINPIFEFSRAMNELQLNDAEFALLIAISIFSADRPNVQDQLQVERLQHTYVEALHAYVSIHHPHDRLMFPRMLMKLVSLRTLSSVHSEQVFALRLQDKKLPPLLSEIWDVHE
Assay: Co-activator recruitment assay (LXR-LBD / SRC-1 peptide, time-resolved fluorescence)
Type: biochemical
Details: coactivator recruitment assays
Source text: The Ligand Binding Domain (LBD) of human LXRalpha (amino acid 205-447) and LXRbeta (amino acid 216-461) was produced by recombinant techniques in E. coli. A fragment of the human Steroid Receptor Co-Activator-1 (SRC-1) was produced as a synthetic peptide. An anti-6×His-antibody coupled with Europium (Eu^3+) was used to recognize the His-tag on the LXR-LBD and Allophycocyanin (APC) coupled to streptavidin was used to recognize the biotinylated SRC-1. Agonist binding to LXRalpha or LXRbeta enhances the affinity of LXR towards SRC-1 and thereby brings Eu^3+ and APC in close proximity. Eu^3+ is excited at 337 nm and emitts light at 620 nm. This emission, when in close proximity, excites APC to emit light at 665 nm.
Compounds (10 mM) in DMSO were diluted (⅓) in DMSO in 10 concentrations. […]
The assay mix has the following final concentrations; LXRalpha mix: 0.06 μg/mL Eu-labelled anti-6×His Ab, […] Streptavidin APC, 30 nM SRC-1 peptide and 0.9 μg/mL LXRalpha in buffer and LXRbeta mix; 0.06 μg/mL Eu-labelled anti-6×His Ab, 1.15 μg/1 mL Streptavidin APC, 90 nM SRC-1 peptide and 0.2 μg/mL LXRbeta in buffer. Time-resolved fluorescence readings were done in a Wallac Victor reader at 665 nm followed by reading at 615 nm. […]

SMILES	EC50
COCCN1C(=O)C(Nc2ccc3oc(C(C)=O)cc3c2)=C(c2ccccc2)S1(=O)=O [Example 13, 4-[(2-Acetyl-1-benzofuran-5-yl)amino]-2-(2-methoxyethyl)-5-phenylisothiazol-3(2H)-one 1,1-dioxide]	270 nM
O=C1C(Nc2ccc(OC(F)F)cc2)=C(c2ccccc2)S(=O)(=O)N1Cc1ccc(OC(F)F)cc1 [Example 14, 2-[4-(Difluoromethoxy)benzyl]-4-{[4-(difluoromethoxy)phenyl]amino}-5-phenylisothiazol-3(2H)-one 1,1-dioxide]	75 nM
